System: LG0567-F671-PDC KRAS tumor spheroid viability
Test: Anticancer human tumor LG0567-F671-PDC patient-derived lung adenocarcinoma cell line growth inhibition [KRAS2]
Details: spheroids with HUVEC and MSC; for IC50: curve of first compound; for viability, T/C: stronger effect = lower value
Description: Multicellular complex tumor spheroid response to RAS pathway inhibitors in combination with a targeted agents in patient-derived cell lines with oncogenic KRAS variants from multiple cancer types
A high-throughput screen of multi-cell type tumor spheroids was designed to identify active combinations of targeted small molecules and KRAS pathway inhibitors. Complex spheroids include a stromal component modeled by human endothelial cells (HUVEC) and fibroblasts modeled by human mesenchymal stem cells (MSCs). The concentration ranges selected for each drug and investigational agent were based upon clinically achievable concentrations if the clinical Cmax of the agent was known.
Compounds. The drugs and investigational agents: BI-3406 (NSC825286), BAY-293 (NSC824723), batoprotafib (TNO155; NSC825523), sotorasib (AMG 510; NSC818433), MRTX1257 (NSC819558), elimusertib (BAY 1895344; NSC800525), molibresib (GSK525762; NSC774829), temuterkib (LY3214996; NSC803410), venetoclax (NSC766270), alisertib (NSC759677), olaparib (NSC753686), talazoparib (NSC767125), erdafitinib (NSC781556), ipatasertib (NSC767898), cabozantinib (NSC761068), nintedanib (NSC756659), abemaciclib (NSC768073), docetaxel (NSC628503), trametinib (NSC758246), and sapanisertib (NSC764658) were obtained from the National Cancer Institute (NCI) Developmental Therapeutics Program Chemical Repository. The FDA-approved anticancer drug set is available from the Developmental Therapeutics Program. […] The stock solutions were prepared in dimethyl sulfoxide (DMSO, Sigma-Aldrich, St. Louis, MO, cat. D2650) at 800-fold the tested concentration and stored at -70 degrees C prior to their use. All drugs and investigational agents were tested over a range starting from a high concentration at or near the clinical Cmax and decreasing in half-log increments. If the clinical Cmax for an agent had not been determined, the highest concentration tested was 10 microM.
Cell Culture. All cells were maintained in an incubator at 37 degrees C and 5% CO2 with 95% humidity. The PDC lines were cultured according to standard operating procedures established by the NCI PDMR (https://pdmr.cancer.gov/sops/default.htm). Briefly, all PDCs were thawed and cultured in Matrigel-coated flasks prepared with a working solution of 1X Ham's F-12 nutrient mix, without supplementation (Invitrogen, Waltham, MA, cat. 11765054), 100 U/mL penicillin-streptomycin (Invitrogen, cat. 15140122), and 2.5% Matrigel (Corning Inc., Corning, NY, cat. 354248) for the first three passages. All PDCs were cultured in complete DMEM/F-12 media containing advanced DMEM/F-12 (Invitrogen, cat. 12634028), 4.9% defined fetal bovine serum, heat inactivated (HyClone Laboratories Inc., Logan, UT, cat. SH30070.03HI), 389 ng/mL hydrocortisone (Sigma-Aldrich, cat. H4001), 9.7 ng/mL human EGF recombinant protein (Invitrogen, cat. PHG0313), 23.4 microg/mL adenine (Sigma-Aldrich, cat. A2786), 97.3 U/mL penicillin-streptomycin (Invitrogen, cat. 15140122), 1.9 mM L-glutamine (Invitrogen, cat. 25030081), and 9.7 microM Y-27632 dihydrochloride (Tocris Bioscience, Bristol, United Kingdom, cat. 1254). The PDCs were cultured in complete DMEM/F12 media without 9.7 microM Y-27632 dihydrochloride for at least two passages prior to the screen. The established cell line HOP-62 was cultured in RPMI 1640 medium, HEPES (Invitrogen, cat. 22400105) with 10% defined fetal bovine serum (HyClone Laboratories Inc., cat. SH30070.03) and 2 mM L-glutamine (Invitrogen, cat. 25030081). The pooled donor HUVEC were cultured in endothelial cell growth medium 2 (PromoCell, Heidelberg, Germany, cat. C-22011) and the hMSC were cultured in mesenchymal stem cell growth medium 2 (PromoCell, cat. C-28009). For all experiments, HUVEC and hMSC were used at passages </=5, while the malignant cell lines were used at passages </=15. […]
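Further: drug exposure lasted seven days after spheroids formed for three days.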
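Wherever viability, T/C is given: 100% = DMSO vehicle control viability.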

CC(C)NCC(C(=O)N1CCN(c2ncnc3c2C(C)CC3O)CC1)c1ccc(Cl)cc1 (stereo not given) + CC1OCC2(CCN(c3cnc(Sc4ccnc(N)c4Cl)c(N)n3)CC2)C1N
IC50 (second compound 0.1 µM): < 31.6 nM
IC50 (second compound 0.316 µM): < 31.6 nM
IC50 (second compound 1 µM): < 31.6 nM
IC50 (second compound 3.16 µM): < 31.6 nM
IC50 (second compound 10 µM): < 31.6 nM
viability, T/C (second compound 0.1 µM, first compound 0.0316 µM): 48.9%
viability, T/C (second compound 0.1 µM, first compound 0.1 µM): 38.3%
viability, T/C (second compound 0.1 µM, first compound 0.316 µM): 29.8%
viability, T/C (second compound 0.1 µM, first compound 1 µM): 31.9%
viability, T/C (second compound 0.1 µM, first compound 3.16 µM): 33.6%
viability, T/C (second compound 0.1 µM, first compound 10 µM): 36.5%
viability, T/C (second compound 0.316 µM, first compound 0.0316 µM): 37.1%
viability, T/C (second compound 0.316 µM, first compound 0.1 µM): 30.9%
viability, T/C (second compound 0.316 µM, first compound 0.316 µM): 21.5%
viability, T/C (second compound 0.316 µM, first compound 1 µM): 20.5%
viability, T/C (second compound 0.316 µM, first compound 3.16 µM): 18.6%
viability, T/C (second compound 0.316 µM, first compound 10 µM): 16.6%
viability, T/C (second compound 1 µM, first compound 0.0316 µM): 26.4%
viability, T/C (second compound 1 µM, first compound 0.1 µM): 22.4%
viability, T/C (second compound 1 µM, first compound 0.316 µM): 14.3%
viability, T/C (second compound 1 µM, first compound 1 µM): 11.9%
viability, T/C (second compound 1 µM, first compound 3.16 µM): 10%
viability, T/C (second compound 1 µM, first compound 10 µM): 6.25%
viability, T/C (second compound 3.16 µM, first compound 0.0316 µM): 21.2%
viability, T/C (second compound 3.16 µM, first compound 0.1 µM): 17.3%
viability, T/C (second compound 3.16 µM, first compound 0.316 µM): 10.9%
viability, T/C (second compound 3.16 µM, first compound 1 µM): 5.23%
viability, T/C (second compound 3.16 µM, first compound 3.16 µM): 4.49%
viability, T/C (second compound 3.16 µM, first compound 10 µM): 3.72%
viability, T/C (second compound 10 µM, first compound 0.0316 µM): 6.83%
viability, T/C (second compound 10 µM, first compound 0.1 µM): 7.98%
viability, T/C (second compound 10 µM, first compound 0.316 µM): 5.46%
viability, T/C (second compound 10 µM, first compound 1 µM): 3.11%
viability, T/C (second compound 10 µM, first compound 3.16 µM): 2.15%
viability, T/C (second compound 10 µM, first compound 10 µM): 1.82%

Source: PubChem BioAssay AID1963856 (Molecular Pharmacology Branch, DTP, NCI, 2024)
